Reference: paper PMC6222871, “Suppression of Hepatitis C Virus Genome Replication and Particle Production by a Novel Diacylglycerol Acyltransferases Inhibitor” (Molecules : A Journal of Synthetic Chemistry and Natural …, 2018)

Key:
[1] = test system: HCV genotype 2a (Huh7.5-J6/JFH1); experiment: microbe, parasite or virus in culture; conditions: Hepatitis C virus, read-out: EC50 on HCV genome replication
Description: We previously synthesized and characterized twelve DGAT inhibitors with a different DGAT specificity. […] A922500, a commercially available DGAT-1-specific inhibitor was used as a positive control. In spite of a wealth of knowledge on an essential role of DGAT-1 in the HCV particle assembly and production, less attention has been paid to potential functions of DGATs in other steps of the viral life cycle. Therefore, we decided to examine effects of these twelve DGAT inhibitors on HCV particle production as well as RNA genome replication in parallel. For this purpose, we transfected Huh7.5 cells with in vitro-transcribed genotype 2a HCV RNAs (Huh7.5-J6/JFH1) and treated them with each DGAT inhibitor for 6 and 72 h at 10 μM. HCV genome replication as well as host GAPDH RNA levels was quantitated by a real-time RT-PCR analysis. For assessment of HCV particle production, we harvested and filtered the supernatant from Huh7.5-J6/JFH1 cells treated with DGAT inhibitors and incubated the supernatant with naïve huh7.5 cells for 72 h. Then, infectivity was measured by a real-time RT-PCR analysis.
Quantitative real-time RT-PCR analysis to measure levels of HCV RNA and GAPDH was conducted as previously described. The cDNA synthesis and reverse transcription of miR-122 were performed by using Taqman quantitative RT-PCR (qRT-PCR) analysis. Taqmanq RT-PCR components including TaqMan miR122 probe, endogenous control U6 probe, TaqMan® MicroRNA reverse transcription Kit and TaqMan® universal master mix II were purchased from Thermo Fisher Scientific (Waltham, MA, USA)
Huh7.5-J6/JFH-1 cells were seeded into 6-well plates at a density of 3 × 10^5 cells per well with DMEM containing 10% FBS. After 24 h, they are incubated with either DMSO, increasing concentrations of 10j for 3, 6, 12, 24, 48, and 72 h, or increasing concentrations of A922500 for 6, 12, 24, 48, and 72 h. Total RNAs were extracted from treated cells and virus-containing media were harvested at each time point. Naïve Huh7.5 cells were infected with these virus-containing media after concentration with centricons. Total RNAs were extracted from Huh7.5 cells infected with virus-containing media. qRT-PCR analysis was performed to measure effect of 10j on HCV replication and virus particle production.

[2] = test system: HCV genotype 2a (Huh7.5-J6/JFH1); experiment: HCV particle production: infectivity of supernatant on naive Huh7.5 cells by real-time RT-PCR; format: cell-based, hepatitis C virus; conditions: Hepatitis C virus, read-out: EC50 on HCV particle production
Description: A922500, a commercially available DGAT-1-specific inhibitor was used as a positive control [10]. […] Therefore, we decided to examine effects of these twelve DGAT inhibitors on HCV particle production as well as RNA genome replication in parallel. For this purpose, we transfected Huh7.5 cells with in vitro-transcribed genotype 2a HCV RNAs (Huh7.5-J6/JFH1) [16] and treated them with each DGAT inhibitor for 6 and 72 h at 10 μM. HCV genome replication as well as host GAPDH RNA levels was quantitated by a real-time RT-PCR analysis. For assessment of HCV particle production, we harvested and filtered the supernatant from Huh7.5-J6/JFH1 cells treated with DGAT inhibitors and incubated the supernatant with naïve huh7.5 cells for 72 h. Then, infectivity was measured by a real-time RT-PCR analysis.
Huh7.5-J6/JFH-1 cells were seeded into 6-well plates at a density of 3 × 10^5 cells per well with DMEM containing 10% FBS. […] Total RNAs were extracted from treated cells and virus-containing media were harvested at each time point. Naïve Huh7.5 cells were infected with these virus-containing media after concentration with centricons.

recombinant DGAT-1 = test system: recombinant DGAT-1; set-up: method as in PMID 23242135; conditions: recombinant DGAT-1, [14C] oleoyl-CoA as acyl-donor; cited from earlier work
Huh7.5 cells [3] = experiment: TG quantification assay in Huh7.5 cells; format: cell-based; conditions: 20 μM
Description: Cells were washed with cold PBS, suspended, and homogenized in 1 mL of 5% NP-40/ddH2O solution. Then, homogenized cells were slowly heated to 90 °C for 5 min or until the NP-40 becomes cloudy, then cooled down to room temperature. Previous step was repeated to solubilize all TG. Cells were centrifuged for 2 min at top speed using a microcentrifuge to remove any insoluble material. Samples were diluted 10-fold with ddH2O before proceeding with the assay. […] Samples were added with 50 μL of reaction mix into each well and incubated at room temperature for 60 min while protected from light. Fluorescence was measured by using a fluorometric reader with Ex/Em = 535/590 nm. The amount of TG from standard sample was calculated using the following equation: Ts=Corrected absorbance−(y−intercept)/slope The amount of intracellular TG was calculated using the following equation: Concentration=Ts/Sv*D where the Ts is the amount of TG from standard curve and Sv is the volume of sample added to sample wells and D is the sample dilution factor.

Huh7.5 cells [4] = experiment: visualization of intracellular LD by BODIPY in Huh7.5 cells; format: cell-based; conditions: 20 μM, 72 h
Description: Huh7.5 cells were incubated in a 24-well plate on top of coverslip in the presence of either DMSO, 8 μM of 10j, or 20 μM of A922500 for 72 h. Then, Huh7.5 cells were fixed by using 4% paraformaldehyde for 15 min and stained with 0.001% BODIPY 493/503 D3922 (Invitrogen, Carlsbad, CA, USA) for 10 min. The coverslips were mounted onto slides using Prolong Gold anti-fade reagent with DAPI (Invitrogen, Carlsbad, CA, USA) Fluorescence were examined and captured by Nikon confocal laser scanning microscopic system. LD content was quantified using the ImageJ program.

[5] = test system: luciferase-linked genotype 2a HCV RNAs; experiment: microbe, parasite or virus in culture; format: cell-based, hepatitis C virus; conditions: Hepatitis C virus, Huh7.5, luciferase-linked genotype 2a HCV RNA in Huh7.5 cells; read-out: EC50 (HCV replication)
Description: (§1) To order to study impacts of DGAT inhibitors on HCV genome replication independently of the particle production, we decided to examine effects of these twelve DGAT inhibitors on the levels of viral RNA genome and cell viability in parallel. […] Then, we treated them with an increasing concentration of each DGAT inhibitor. Then, luciferase and MTT-based cell viability assays were performed to determine EC50 and CC50 (cytotoxic concentration required to kill 50% of treated cells) values, respectively.
(§2) Cell viability was measured with EZ-CYTOX (10% tetrazolium salt; Dogen, Gyeonggi-do, Korea) as described previously. Anti-HCV replication analysis using a luciferase assay was conducted as previously described.

[6] = MTT-based cell viability assay (EZ-CYTOX); conditions: human
Description: as §1, §2

JFH1-NS5A-GFP cells = experiment: NS5A-GFP and Oil Red O imaging in JFH1-NS5A-GFP cells; format: cell-based, hepatitis C virus
Description: Based on previous results, we noticed that EC50 values required for inhibition of the HCV genome replication by 10j were around 1–2 μM ranges (Figure 2 and Table 3). However, IC50 value required for inhibition of the enzymatic DGAT activities in vitro by 10j was reported to be higher than 5 μM (Table 2 and Figure 6E). Based on these observations, we hypothesized that inhibition of DGATs by 10j may not play a direct role in suppression of the viral genome replication. To test this hypothesis, we decided to study effects of 10j on DGAT and the viral genome replication in a simultaneous manner. […] Then, the viral NS3 protein and LDs were visualized by using an anti-NS3 antibody and BODIPY, respectively. […] Significant reduction of LD was only seen after treatment of 10j higher than 5 μM. In order to confirm this observation, we decided to utilize another HCV-positive cell—JFH1-NS5A-GFP cells—which were infected with infectious HCV genotype 2a particles with a visually tractable NS5A due to the presence of in-frame-fused GFP protein with NS5A. TGs of these cells were stained with ORO for visualization in parallel. […]
Immunofluorescence analysis of Huh7.5-J6/JFH1 or Huh7.5-JFH1-5A-GFP cells in the presence of 10j was conducted as previously described. Fluorescence were examined and captured by Nikon confocal laser scanning microscopic system. LD content was quantified using the ImageJ program.

HCV = test system: HCV; set-up: method as in PMID 27788579; conditions: read-out: EC50 in vitro; cited from earlier work

Row | SMILES | EC50 ([1]; 6 h) [µM] | EC50 ([1]; 12 h) [µM] | EC50 ([1]; 24 h) [µM] | EC50 ([1]; 48 h) [µM] | EC50 ([1]; 72 h) [µM] | EC50 ([2]; Huh7.5, 6 h) [µM] | EC50 ([2]; Huh7.5, 12 h) [µM] | EC50 ([2]; Huh7.5, 24 h) [µM] | EC50 ([2]; Huh7.5, 48 h) [µM] | EC50 ([2]; Huh7.5, 72 h) [µM] | IC50 (recombinant DGAT-1) [µM] | suppression of endogenous level of TG (Huh7.5 cells [3]) [%] | increase in the level of LDs (BODIPY) (Huh7.5 cells [4]) [%] | EC50 [5] [µM] | CC50 [6] [µM] | abundance of GFP-tagged NS5A proteins or ORO-stained LDs (JFH1-NS5A-GFP cells) | EC50 (HCV) [µM]
1 | O=C(Nc1ccccc1)Nc1ccc(-c2ccc(C(=O)[C@@H]3CCC[C@H]3C(=O)O)cc2)cc1 [A922500, reference compound] | > 100 | > 100 | > 100 | > 100 | > 100 | 34.3 | 76.6 | 68.6 | 42.2 | 22 | 0.007 | 25 | 45 | 50.8 | 71.9 | failed to induce any significant changes | –
2 | O=C(O)C[C@H]1CC[C@H](c2ccc(-c3ccc(Nc4ccc(C(F)(F)F)nc4)cn3)cc2)CC1 [pradigastat] | – | – | – | – | – | – | – | – | – | – | – | – | – | – | – | – | 30
